ChEMBL document CHEMBL1126134, “7,8-Dihydro-8-ethyl-2-(3-noradamantyl)-4-propyl-1H-imidazo[2,1-i]purin-5(4H)-one: a potent and water-soluble adenosine A1 antagonist” (J Med Chem, 1992)
In brackets after ≈: the same amount, converted by molar mass.

Assays:
[1] = biological target: T1, Adenosine receptor A1 (Cavia porcellus, UniProt P47745); type: cell membranes, Brain membranes
T1 sequence (P47745 whole entry): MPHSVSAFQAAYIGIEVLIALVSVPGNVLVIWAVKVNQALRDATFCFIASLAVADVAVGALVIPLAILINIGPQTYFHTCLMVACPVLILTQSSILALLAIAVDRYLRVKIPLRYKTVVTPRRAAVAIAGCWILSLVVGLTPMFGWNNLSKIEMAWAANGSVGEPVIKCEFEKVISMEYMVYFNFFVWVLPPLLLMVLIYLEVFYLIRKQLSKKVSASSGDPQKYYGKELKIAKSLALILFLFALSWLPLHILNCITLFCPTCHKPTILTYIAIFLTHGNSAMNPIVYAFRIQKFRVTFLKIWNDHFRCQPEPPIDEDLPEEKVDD

[2] = physchem; details: water
Description: Solubility of the compound(10 mg) was measured in water(2.5 mL) at 20 degree celsius for 1 hr

[3] = Solubility was measured in saline; type: physicochemical
[4] = biological target: T1, Adenosine receptor A1; type: cell membranes, Brain membranes; remark: listed apart in the source
[5] = biological target: Adenosine A2 receptor (Homo sapiens, UniProt P29275+P29274); test: Binding affinity for adenosine A2 receptor using N-[3H]-ethyladenosin-5''-uronamide in guinea pig forebrain membranes

| Ki [1] [nM] | solubility at 1 h [2] [µg/mL] | solubility [3] [µg/mL] | Ki [4] [nM] | Ki [5] [nM] | Structure (SMILES) |
| --- | --- | --- | --- | --- | --- |
| 2.7 | 3000 (≈ 8160 µM) |  |  |  | CCCN1C(=O)N2C[C@@H](CC)N=C2c2[nH]c(C34CC5CC(CC3C5)C4)nc21 |
| 120 | 2900 (≈ 7890 µM) |  |  |  | CCCN1C(=O)N2C[C@H](CC)N=C2c2[nH]c(C34CC5CC(CC3C5)C4)nc21 |
|  | 3200 (≈ 8710 µM) | 990 (≈ 2690 µM) | 5.7 |  | CCCN1C(=O)N2CC(CC)N=C2c2[nH]c(C34CC5CC(CC3C5)C4)nc21 (stereo not given) |
|  | 8.5 (≈ 25.7 µM) | 5.8 (≈ 17.6 µM) |  | 430 | CCCn1c(=O)c2nc(C(C3CC3)C3CC3)[nH]c2n(CCC)c1=O |
|  | 220 (≈ 691 µM) | 200 (≈ 628 µM) |  |  | CCCn1c(=O)c2[nH]c(C3CCC(=O)C3)nc2n(CCC)c1=O (stereo not given) |
|  | 3.3 (≈ 10.8 µM) |  |  |  | CCCn1c(=O)c2[nH]c(C3CCCC3)nc2n(CCC)c1=O [1,3-DIPROPYL-8-CYCLOPENTYLXANTHINE [DPCPX]] |
|  | 0.5 (≈ 1.4 µM) | 0.6 (≈ 1.68 µM) |  |  | CCCn1c(=O)c2[nH]c(C34CC5CC(CC3C5)C4)nc2n(CCC)c1=O [ROLOFYLLINE] |
